The results in this text go back to US20180002319A1, “MACROCYCLIC PICOLINAMIDE COMPOUNDS WITH FUNGICIDAL ACTIVITY” (DOW AGROSCIENCES LLC, priority 2014, published 2018).

Each structure is given as a SMILES string. Like-named read-outs stand apart in the source and are kept apart here.

In one data set the test system is Zymoseptoria tritici. Description: Leaf Blotch of Wheat (SEPTTR) fungicidal activity. The class given is in vivo. To be noted: wheat leaf blotch; for pest or weed control at 100 ppm: High Volume application; for pest or weed control at 121.5 g/ha: Low Volume application, 121.5 g/H. Put shortly: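 Wheat seedlings (Yuma, first leaf emerged) were sprayed to run-off with compound in acetone/water containing Triton X-100 and inoculated with Z. tritici spores before or after treatment. Percent disease control comes from 0–100% severity on treated versus untreated plants.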

The test system of the next data set is Puccinia triticina. The experiment in a line: Wheat Brown Rust (PUCCRT) fungicidal activity. The data set is classed as in vivo. The conditions noted are these: for pest or weed control at 100 ppm: High Volume application; for pest or weed control at 121.5 g/ha: Low Volume application, 121.5 g/H. The procedure, abridged: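 Disease severity (0–100%) on first leaves compared with untreated plants gives percent control. Plants (wheat var. Yuma) received spore inoculum before or after run-off spraying with compound in acetone/Triton X-100 water, held overnight at 22° C, 100% RH, then in a 24° C greenhouse.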

Where [1] appears, read: 24 h, 1 day protectant, read-out: SEPTTR disease control, 1DP (1 Day Protectant).
The mark [2] stands for this setting: 72 h, 3 day curative, read-out: SEPTTR disease control, 3DC (3 Day Curative).
Setting [3] is: 24 h, 1 day protectant, read-out: PUCCRT disease control, 1DP (1 Day Protectant).
The mark [4] stands for this setting: 72 h, 3 day curative, read-out: PUCCRT disease control, 3DC (3 Day Curative).

Regarding `COc1ccnc(C(=O)N[C@H]2COCCC[C@@H](CCC(C)C)[C@H](C)OC2=O)c1OC(C)=O` [Compound 39], the melting point – broadly, the temperature of the solid-liquid transition – fell in the range of 57 to 62 °C. The pest or weed control at 100 ppm in the data set on Zymoseptoria tritici (setting [1]) was > 80%. Moreover, the pest or weed control at 100 ppm with Zymoseptoria tritici (setting [2]) is > 80%. For the same compound, the pest or weed control at 100 ppm with Puccinia triticina (setting [3]) was > 80%. In the data set with Puccinia triticina (setting [4]), the pest or weed control at 100 ppm was > 80%.
`COc1ccnc(C(=O)N[C@H]2CCOC[C@H](Cc3ccccc3)[C@@H](OCC(C)C)[C@H](C)OC2=O)c1O` [Compound 95] returned a melting point of 197 to 198 °C. The pest or weed control at 100 ppm in the data set on Zymoseptoria tritici (setting [1]) was > 80%. Moreover, the pest or weed control at 100 ppm with Zymoseptoria tritici (setting [2]) is < 80%. Further, the pest or weed control at 100 ppm in the data set with Puccinia triticina (setting [3]) is > 80%. Also, in the data set with Puccinia triticina (setting [4]), the pest or weed control at 100 ppm is < 80%.
As to `COc1ccnc(C(=O)N[C@H]2COCC[C@H](Cc3ccccc3)[C@@H](Oc3ccccc3)[C@H](C)OC2=O)c1O` [Compound 126], the pest or weed control at 100 ppm in the data set on Zymoseptoria tritici (setting [1]) is > 80%; in the data set on Zymoseptoria tritici (setting [2]) it was < 80%; in the data set on Puccinia triticina (setting [3]), > 80%; in the data set on Puccinia triticina (setting [4]) it was > 80%.
In the case of `COc1ccnc(C(=O)N[C@H]2COCC[C@H](Cc3ccc(F)cc3)[C@@H](OCC3CC3)[C@H](C)OC2=O)c1O` [Compound 133], the pest or weed control at 100 ppm with Zymoseptoria tritici (setting [1]) was < 80%; with Zymoseptoria tritici (setting [2]), < 80%; in the data set with Puccinia triticina (setting [3]) it was > 80%; in the data set with Puccinia triticina (setting [4]), > 80%.
As for `CCCCCO[C@H]1[C@H](C)OC(=O)[C@@H](NC(=O)c2nccc(OC)c2O)CCCC[C@@H]1Oc1ccccc1` [Compound 96], the pest or weed control at 100 ppm is < 80% with Zymoseptoria tritici (setting [1]), < 80% in the data set with Zymoseptoria tritici (setting [2]), > 80% with Puccinia triticina (setting [3]) and < 80% in the data set with Puccinia triticina (setting [4]).
As to `COc1ccnc(C(=O)N[C@H]2CCCC[C@H](OC)[C@@H](OC3CCCC3)[C@H](C)OC2=O)c1OCOC(C)=O` [Compound 34], the pest or weed control at 121.5 g/ha was < 80% in the data set on Zymoseptoria tritici (setting [1]), > 80% with Zymoseptoria tritici (setting [2]), > 80% in the data set with Puccinia triticina (setting [3]) and > 80% with Puccinia triticina (setting [4]).
Take `COc1ccnc(C(=O)N[C@H]2CCOC[C@H](OCC(C)C)[C@@H](OCC(C)C)[C@H](C)OC2=O)c1O` [Compound 116]: the pest or weed control at 100 ppm in the data set on Zymoseptoria tritici (setting [2]), with Puccinia triticina (setting [3]) and with Puccinia triticina (setting [4]) was < 80% in each case.
Regarding `COc1ccnc(C(=O)N[C@H]2COCCC[C@@H](OCC(C)C)[C@H](C)OC2=O)c1O` [Compound 112], the pest or weed control at 100 ppm with Zymoseptoria tritici (setting [1]), in the data set on Zymoseptoria tritici (setting [2]), in the data set on Puccinia triticina (setting [3]) and with Puccinia triticina (setting [4]) was < 80% each time.
